Results from US20050192314A1, “Urea derivatives as C-kit modulators” (Ambit Biosciences Corporation, priority 2003, published 2005).

Molecular target: T1, KIT(DKIN) (Homo sapiens, UniProt P10721)
T1 construct: KIT(DKIN); made in house
Assay: Binding constant (Kd) measurement, phage-displayed kinase competition binding assay: KIT(DKIN)
From the text: The term “ND” represents non-determined values.

T1 sequence (P10721 589-937 limits assumed): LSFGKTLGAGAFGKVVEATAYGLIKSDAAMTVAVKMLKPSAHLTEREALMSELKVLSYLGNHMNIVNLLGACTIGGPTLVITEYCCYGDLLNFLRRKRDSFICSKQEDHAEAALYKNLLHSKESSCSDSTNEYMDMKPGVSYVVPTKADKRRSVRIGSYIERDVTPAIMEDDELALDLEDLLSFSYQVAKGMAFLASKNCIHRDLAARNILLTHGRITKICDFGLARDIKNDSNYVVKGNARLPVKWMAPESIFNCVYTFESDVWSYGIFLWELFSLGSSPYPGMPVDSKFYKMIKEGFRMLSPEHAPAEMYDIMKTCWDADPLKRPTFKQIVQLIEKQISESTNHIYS

| Structure (SMILES) | Kd [nM] |
| --- | --- |
| CC(C)(C)c1cc(NC(=O)Nc2ccc(NC(=O)CC(N)c3ccccc3Cl)cc2)no1 (stereo not drawn) [Compound N44] | 1000 to 10000 |
| CC(C)(C)c1cc(NC(=O)Nc2ccc(C(=O)NCc3ccc4c(c3)OCO4)cc2)no1 [Compound N97] | 100 to 1000 |
| CC(C)(C)c1cc(NC(=O)Nc2ccc(OCc3ccc4ccccc4c3)cc2)no1 [Compound G3] | 100 to 1000 |
| CC(C)(C)c1cc(NC(=O)Nc2ccc(OCCc3ccccn3)cc2)no1 [Compound G27] | 100 to 1000 |
| CC(C)(C)c1cc(NC(=O)Nc2ccc(OCCN3CCNCC3)cc2)no1 [Compound G52] | > 10000 |
| CC(C)(C)c1cc(NC(=O)Nc2ccc(F)cc2)no1 [Compound A47] | 1000 to 10000 |
| CC(C)(C)c1cc(NC(=O)Nc2ccc(C(=O)Nc3cccc(C(F)(F)F)c3)cc2)no1 [Compound N154] | 1000 to 10000 |
| Cc1ccc(CNc2ccc(NC(=O)Nc3cc(C(C)(C)C)on3)cc2)cc1 [Compound O9] | 100 to 1000 |
| CC(C)(C)c1cc(NC(=O)Nc2ccc(-c3ccccc3)cc2)no1 [Compound A23] | 100 to 1000 |
| CC(C)(C)c1cc(NC(=O)Nc2ccc(NC(=O)c3c(F)cccc3C(F)(F)F)cc2)no1 [Compound N95] | 1000 to 10000 |
| CC(C)(C)c1cc(NC(=O)Nc2ccc(NC(=O)c3ncc[nH]3)cc2)no1 [Compound N13] | < 100 |
| CC(C)(C)c1cc(NC(=O)Nc2ccc(NC(=O)c3ccc(Cl)nc3)cc2)no1 [Compound N125] | 1000 to 10000 |
| CC(C)(C)c1cc(NC(=O)Nc2ccc(NC(=O)c3ncccc3C(N)=O)cc2)no1 [Compound N6] | 1000 to 10000 |
| Cc1ccc(-n2nc(C(C)(C)C)cc2NC(=O)Nc2ccc(OCCN3CCOC(CO)C3)c3ccccc23)cc1 (stereo not drawn) [Compound G38] | 100 to 1000 |
| Cc1c(Cl)cccc1NC(=O)Nc1cc(C(C)(C)C)on1 [Compound A5] | 1000 to 10000 |
| CC(C)(C)c1cc(NC(=O)Nc2ccc(C(=O)NCCO)cc2)no1 [Compound N87] | 100 to 1000 |
| CC(C)(C)c1cc(NC(=O)Nc2ccc(NC(=O)c3cc(Cl)cn(Cc4ccccc4)c3=O)cc2)no1 [Compound N112] | 1000 to 10000 |
| CC(C)(C)c1cc(NC(=O)Nc2ccc(NC(=O)c3c[nH]c(=O)nc3-c3ccncc3)cc2)no1 [Compound N19] | 1000 to 10000 |
| CC(C)(C)c1cc(NC(=O)Nc2ccc(NC(=O)c3cccnc3)cc2)no1 [Compound N1] | 100 to 1000 |
| CC(C)(C)c1cc(NC(=O)Nc2ccc(Cl)cc2)on1 [Compound A32] | 100 to 1000 |
| CC(C)(C)c1cc(NC(=O)Nc2ccc(OCc3ccc4nonc4c3)cc2)no1 [Compound G55] | 100 to 1000 |

| Structure (SMILES) | Kd [nM] |
| --- | --- |
| CC(C)(C)c1cc(NC(=O)Nc2ccc(OCc3ccccc3Cl)cc2)no1 [Compound G10] | < 100 |
| Cc1ccc(C(=O)Nc2ccc(NC(=O)Nc3cc(C(C)(C)C)on3)cc2)cn1 [Compound N142] | 100 to 1000 |
| CC(C)(C)c1cc(NC(=O)Nc2ccc(C(=O)Nc3ccccc3)cc2)no1 [Compound N90] | 100 to 1000 |
| O=C(Nc1ccno1)Nc1ccc(Cl)cc1Cl [Compound Z12] | 1000 to 10000 |
| CC(C)(C)c1cc(NC(=O)Nc2ccc(OCc3ccc(C(F)(F)F)cc3)cc2)no1 [Compound G6] | 100 to 1000 |
| CC(C)(C)c1cc(NC(=O)Nc2ccc(OCC3CCC3)cc2)no1 [Compound G39] | < 100 |
| CC(C)(C)c1cc(NC(=O)Nc2ccc(NC(=O)c3cc(Cl)nc(Cl)c3)cc2)no1 [Compound N132] | 1000 to 10000 |
| CC(C)(C)c1cc(N2CCCN(c3ccc(OCc4ccccc4)cc3)C2=O)on1 [Compound E2] | 1000 to 10000 |
| CC(C)(C)c1cc(NC(=O)Nc2ccc(NC(=O)c3cnccn3)cc2)no1 [Compound N136] | < 100 |
| CC(C)(C)c1cc(NC(=O)Nc2ccc(NC(=O)Cc3ccc(-c4ccccc4)cc3)cc2)no1 [Compound N38] | 100 to 1000 |
| Cc1noc(-c2ccc(NC(=O)Nc3cc(C(C)(C)C)on3)cc2)n1 [Compound P9] | < 100 |
| Cc1ccc(NC(=O)Nc2cc(C(C)(C)C)on2)cc1 [Compound A33] | 100 to 1000 |
| O=C(Nc1ccc(Cl)cc1)Nc1cc(C(F)(F)F)cc(Cl)n1 [Compound Z76] | 100 to 1000 |
| CC(C)(C)c1cc(NC(=O)Nc2ccc(NC(=O)c3csc(-c4ccc(Cl)cc4)n3)cc2)no1 [Compound N124] | 100 to 1000 |
| Cc1ccc(-n2nc(C(C)(C)C)cc2NC(=O)Nc2ccc(Cl)cc2)cc1 [Compound H14] | 1000 to 10000 |
| CC(C)(C)c1cc(NC(=O)Nc2ccc(C(=O)Nc3ccc(F)cc3F)cc2)no1 [Compound N153] | 100 to 1000 |
| CC(C)(C)c1cc(NC(=O)Nc2ccc(OCCN3CCOCC3)c3ccccc23)no1 [Compound K1] | 1000 to 10000 |
| NC(=O)c1c(NC(=O)Nc2ccc(Cl)c(Cl)c2)sc2c1CCCC2 [Compound Z56] | > 10000 |
| Cc1ccc(COc2ccc(NC(=O)Nc3cc(C(C)(C)C)on3)cc2)cc1 [Compound G15] | 100 to 1000 |
| CC(C)(C)c1cc(NC(=O)Nc2ccc(NC(=O)c3ccc4ncccc4c3)cc2)no1 [Compound N151] | 100 to 1000 |
| CC(C)(CO)c1cc(NC(=O)Nc2ccc(OCc3ccccc3)cc2)on1 [Compound G2] | 100 to 1000 |

| Structure (SMILES) | Kd [nM] |
| --- | --- |
| CC(C)(C)c1cc(NC(=O)Nc2ccc(OCC(O)CO)cc2)no1 (stereo not drawn) [Compound G28] | 100 to 1000 |
| CC(C)(C)c1cc(NC(=O)Nc2ccc(C(=O)NCc3ccccc3)cc2)no1 [Compound N89] | 100 to 1000 |
| CC(C)(C)c1cc(NC(=O)Nc2ccc(OCCN3CCSCC3)cc2)no1 [Compound G53] | 1000 to 10000 |
| CC(C)(C)c1cc(NC(=O)Nc2ccc(NC(=O)C3CCNCC3)cc2)no1 [Compound N150] | 1000 to 10000 |
| CC(C)(C)c1cc(NC(=O)Nc2ccc(NC(=O)c3c(F)cccc3F)cc2)no1 [Compound N37] | 1000 to 10000 |
| CC(C)Oc1ccc(NC(=O)Nc2cc(C(C)(C)C)no2)cc1 [Compound G33] | < 100 |
| CC(C)(C)c1cc(NC(=O)Nc2ccc(NC(=O)CCc3ccccc3)cc2)no1 [Compound N96] | 100 to 1000 |
| Cc1ccc(NC(=O)Nc2cc(C(F)(F)F)cc(Cl)n2)cc1 [Compound W1] | 100 to 1000 |
| Cc1nnsc1C(=O)Nc1ccc(NC(=O)Nc2cc(C(C)(C)C)on2)cc1 [Compound N18] | 1000 to 10000 |
| CC(C)(C)c1cc(NC(=O)Nc2ccc(NC(=O)c3cnc(Cl)c(Cl)c3)cc2)no1 [Compound N123] | 1000 to 10000 |
| CC(C)(C)c1cc(NC(=O)Nc2ccc(NC(=O)c3cccc4nsnc34)cc2)no1 [Compound N21] | < 100 |
| CC(C)(C)c1cc(NC(=O)Nc2ccc(NC(=O)C(N)Cc3ccccc3F)cc2)no1 (stereo not drawn) [Compound N42] | 1000 to 10000 |
| C=CCOc1ccc(NC(=O)Nc2cc(C(C)(C)C)no2)cc1 [Compound G32] | < 100 |
| CC(C)(C)c1cc(NC(=O)Nc2ccc(NS(=O)(=O)c3ccccc3)cc2)no1 [Compound V1] | 1000 to 10000 |
| CC(C)(C)c1cc(NC(=O)Nc2ccc(OCc3ccccc3-c3ccccc3)cc2)no1 [Compound G8] | 1000 to 10000 |
| CC(C)(C)c1cc(NC(=O)Nc2ccc(NC(=O)c3c(Cl)cccc3Cl)cc2)no1 [Compound N94] | 100 to 1000 |
| CC(C)(C)c1cc(NC(=O)Nc2ccc(OCc3c(F)cccc3F)cc2)no1 [Compound G21] | < 100 |
| CC(C)(C)c1cc(NC(=O)Nc2ccc(NC(=O)c3cc(Cl)cc(Cl)c3)cc2)no1 [Compound N29] | 100 to 1000 |
| CC(C)(C)c1cc(NC(=O)Nc2ccc3cc4ccccc4cc3c2)no1 [Compound A18] | 1000 to 10000 |
| CC(C)(C)c1cc(NC(=O)Nc2ccc(OCCN3CCCCC3)cc2)no1 [Compound G50] | > 10000 |
| CC(C)(C)c1cc(NC(=O)Nc2ccc(Cl)cc2)no1 [Compound A27] | 100 to 1000 |

| Structure (SMILES) | Kd [nM] |
| --- | --- |
| Cn1nc(-c2ccccc2)c(C(=O)Cc2ccc(NC(=O)Nc3cc(C(C)(C)C)on3)cc2)c1Cl [Compound N11] | > 10000 |
| CC(C)(C)c1cc(NC(=O)Nc2ccc(NC(=O)c3cnnc4ccccc34)cc2)no1 [Compound N147] | 100 to 1000 |
| CC(C)(C)c1cc(NC(=O)Nc2ccc(OCc3ccccc3C(F)(F)F)cc2)no1 [Compound G4] | 100 to 1000 |
| CC(C)(C)c1cc(NC(=O)Nc2ccc(OCc3ccccc3)cc2)on1 [Compound G30] | 100 to 1000 |
| Cc1nc(C(=O)Nc2ccc(NC(=O)Nc3cc(C(C)(C)C)on3)cc2)nn1-c1cc(Cl)cc(Cl)c1 [Compound N15] | > 10000 |
| CCc1ccc(C(=O)Nc2ccc(NC(=O)Nc3cc(C(C)(C)C)on3)cc2)cc1 [Compound N32] | 100 to 1000 |
| C[C@H](NC(=O)c1ccc(NC(=O)Nc2cc(C(C)(C)C)on2)cc1)c1ccccc1 [Compound N88] | 100 to 1000 |
| CC(C)(C)c1cc(NC(=O)Nc2ccc(OCCN3CCC(O)CC3)cc2)no1 [Compound G48] | > 10000 |
| CC(C)(C)c1cc(NC(=O)Nc2ccc(OCCc3ccccc3F)cc2)no1 [Compound G25] | 100 to 1000 |
| CC(C)(C)c1cc(NC(=O)Nc2ccc(NC(=O)C3CCCCC3)cc2)no1 [Compound N91] | 1000 to 10000 |
| CCOC(=O)CCc1c(C)[nH]c(C(=O)Nc2ccc(NC(=O)Nc3cc(C(C)(C)C)on3)cc2)c1C [Compound N83] | 100 to 1000 |
| CC(C)(C)c1cc(NC(=O)Nc2ccc(NC(=O)c3cnc4cc(C(F)(F)F)ccc4c3O)cc2)no1 [Compound N146] | 1000 to 10000 |
| CC(C)(C)c1cc(NC(=O)Nc2ccc(NC(=O)c3cccc4c3OCCO4)cc2)no1 [Compound N111] | 1000 to 10000 |
| CC(C)(C)c1cc(NC(=O)Nc2ccc(NC(=O)C3CNCCN3)cc2)no1 (stereo not drawn) [Compound N152] | > 10000 |
| CC(C)(C)c1cc(NC(=O)Nc2ccc(NC(=O)c3nccnc3C(N)=O)cc2)no1 [Compound N138] | 100 to 1000 |
| CC(C)(C)c1cc(NC(=O)Nc2ccc(NC(=O)c3cc4cc(Br)ccc4s3)cc2)no1 [Compound N126] | 1000 to 10000 |
| CC(C)(C)c1cc(NC(=O)Nc2ccc(C(=O)Nc3ccc(OCC4CCC4)cc3)cc2)no1 [Compound N100] | 100 to 1000 |
| CC(C)(C)c1cc(NC(=O)Nc2ccc(NC(=O)c3cccc4nsnc34)cc2)no1 [Compound N109] | 100 to 1000 |
| CN(Cc1cccc([N+](=O)[O-])c1)C(=O)Nc1cc(C(C)(C)C)on1 [Compound J3] | 1000 to 10000 |
| CC(C)(C)c1cc(NC(=O)Nc2ccc(OCCc3ccc(F)cc3)cc2)no1 [Compound G24] | 100 to 1000 |
| COc1cc(C(=O)Nc2ccc(NC(=O)Nc3cc(C(C)(C)C)on3)cc2)nc2ccccc12 [Compound N137] | 100 to 1000 |
